Experimental data as given in publication PMC8653295 (Chemistry (Weinheim an Der Bergstrasse, Germany), 2021).
“And” between values parts separate entries of the source, which are not always exact repeats. Equal entries are not always repeated. “Also recorded” adds a separate entry of the source.

Tests used:
SARS‐CoV‐2 PL^pro = SARS‐CoV‐2 PL^pro (Severe acute respiratory syndrome coronavirus 2, UniProt P0DTD1); assay: biochemical; assay type: biochemical; details: for inhibition of SARS-CoV-2 PLpro: 1 µM
[1] = biological target: interaction of the RBD of the SARS‐CoV‐2 S protein with the ACE2 receptor (Severe acute respiratory syndrome coronavirus 2, UniProt P0DTC2); assay type: binding; details: for inhibition of the S/ACE2 interaction: 20 µM
SARS‐CoV‐2 = assay type: cell-based
SARS‐CoV PL^pro = SARS‐CoV PL^pro (Severe acute respiratory syndrome coronavirus, UniProt P0C6X7); assay: biochemical; assay type: biochemical; details: for inhibition of SARS-CoV PLpro: 10 µM

Compound: O=C(O)CC([S-])C(=O)O.[Au+] (stereo not drawn) [Au‐2, aurothiomalate, reference compound]
- concentration up to which no significant cytotoxic effects / tolerated well (Caco‐2 cells): ≥ 500 µM
- IC50 (SARS‐CoV‐2 PL^pro): 0.6 ± 0.25 µM
- IC50 SARS‐CoV‐2 PL^pro (SARS‐CoV‐2 PL^pro): Submicromolar
- inhibition of SARS-CoV-2 PLpro (SARS‐CoV‐2 PL^pro): 64% and > 50%
- inhibition of the S/ACE2 interaction [1]: 18%
- antiviral effect against SARS‐CoV‐2 replication (in words) (SARS‐CoV‐2): not active
- IC50 (SARS‐CoV PL^pro): 0.69 ± 0.2 µM
- IC50 SARS‐CoV PL^pro (SARS‐CoV PL^pro): Submicromolar
- inhibition of SARS-CoV PLpro (SARS‐CoV PL^pro): 91% and > 50%
- concentration up to which no significant cytotoxic effects / tolerated well (CaLu‐3 cells): ≥ 500 µM

Compound: CCn1[c]([Au-][Cl])[n+](CC)c2cc(C(=O)OC)ccc21 [Au‐12]
- IC50 (SARS‐CoV‐2 PL^pro): 1.1 ± 0.06 µM
- inhibition of the S/ACE2 interaction [1]: 19%
- antiviral effect against SARS‐CoV‐2 replication (in words) (SARS‐CoV‐2): at 6.25 and 25 μM concentrations efficiently inhibited; also recorded: antiviral activity starting at low micromolar concentrations
- IC50 (SARS‐CoV PL^pro): 0.33 ± 0.11 µM

Compound: CO[C@H]1O[C@H](CNC(=O)C2CCN(C(=S)[S-])CC2)[C@@H](O)[C@H](O)[C@H]1O.[Au+3].[Br-].[Br-] [Au‐33]
- concentration up to which no significant cytotoxic effects / tolerated well (Caco‐2 cells): ≥ 500 µM
- IC50 (SARS‐CoV‐2 PL^pro): 0.21 ± 0.04 µM
- inhibition of SARS-CoV-2 PLpro (SARS‐CoV‐2 PL^pro): 99%
- inhibition of the S/ACE2 interaction [1]: 10%
- antiviral effect against SARS‐CoV‐2 replication (in words) (SARS‐CoV‐2): inactive at low dosages; also recorded: completely blocked SARS‐CoV‐2 at 500 μM; also recorded: strongly blocked viral replication at a high dosage of 500 μM
- IC50 (SARS‐CoV PL^pro): 1.04 ± 0.27 µM
- inhibition of SARS-CoV PLpro (SARS‐CoV PL^pro): 78%
- concentration up to which no significant cytotoxic effects / tolerated well (CaLu‐3 cells): ≥ 500 µM

Compound: CO[C@H]1O[C@H](CO)[C@@H](O)[C@H](O)[C@H]1NC(=O)C1CCN(C(=S)[S-])CC1.[Au+3].[Br-].[Br-] [Au‐34]
- concentration up to which no significant cytotoxic effects / tolerated well (Caco‐2 cells): ≥ 500 µM
- IC50 (SARS‐CoV‐2 PL^pro): 0.09 ± 0.04 µM
- inhibition of SARS-CoV-2 PLpro (SARS‐CoV‐2 PL^pro): 98%
- inhibition of the S/ACE2 interaction [1]: 15%
- antiviral effect against SARS‐CoV‐2 replication (in words) (SARS‐CoV‐2): inactive at low dosages; also recorded: completely blocked SARS‐CoV‐2 at 500 μM; also recorded: strongly blocked viral replication at a high dosage of 500 μM
- IC50 (SARS‐CoV PL^pro): 1.15 ± 0.34 µM
- inhibition of SARS-CoV PLpro (SARS‐CoV PL^pro): 86%
- concentration up to which no significant cytotoxic effects / tolerated well (CaLu‐3 cells): ≥ 500 µM

Compound: CCC(CC)COC(=O)[C@H](C)N[P@](=O)(OC[C@H]1O[C@@](C#N)(c2ccc3c(N)ncnn23)[C@H](O)[C@@H]1O)Oc1ccccc1 [Remdesivir, remdesivir, reference compound]
- antiviral effect against SARS‐CoV‐2 replication (in words) (SARS‐CoV‐2): efficiently inhibited viral replication at low micromolar concentrations

Compound: [Cl-].[Cl-].[Ti+4].c1cc[cH-]c1.c1cc[cH-]c1 [Ti‐1, titanocene dichloride, reference compound]
- concentration up to which no significant cytotoxic effects / tolerated well (Caco‐2 cells): ≥ 500 µM
- activity against SARS‐CoV‐2 PL^pro (in words) (SARS‐CoV‐2 PL^pro): inactive
- inhibition of SARS-CoV-2 PLpro (SARS‐CoV‐2 PL^pro): -13%
- inhibition of the S/ACE2 interaction [1]: 69%
- IC50 ([1]; read-out: IC50 as inhibitors of the S/ACE2 interaction): 3.9 ± 0.3 µM
- antiviral effect against SARS‐CoV‐2 replication (in words) (SARS‐CoV‐2): active at 125 and 500 μM; also recorded: strongly blocked viral replication at a high dosage of 500 μM
- concentration at which antiviral effects were shown (SARS‐CoV‐2): higher than 100 μM
- activity against SARS‐CoV PL^pro (in words) (SARS‐CoV PL^pro): inactive
- inhibition of SARS-CoV PLpro (SARS‐CoV PL^pro): 6%
- concentration up to which no significant cytotoxic effects / tolerated well (CaLu‐3 cells): ≥ 500 µM

Compound: Na12[SnO8Pd12(PO4)8] ⋅ 43H2O [POM‐2]
- concentration up to which no significant cytotoxic effects / tolerated well (Caco‐2 cells): ≥ 200 µM
- inhibition of SARS-CoV-2 PLpro (SARS‐CoV‐2 PL^pro): 66%
- inhibition of the S/ACE2 interaction [1]: 50%
- inhibition of SARS-CoV PLpro (SARS‐CoV PL^pro): 100%
- concentration up to which no significant cytotoxic effects / tolerated well (CaLu‐3 cells): ≥ 200 µM

Compound: Rb5.5Na4.5[{(p‐tolyl)Sb}4(PW9O34)2] ⋅ 40H2O [POM‐6]
- cytotoxicity (in words) (Caco‐2 cells): strongly toxic
- inhibition of SARS-CoV-2 PLpro (SARS‐CoV‐2 PL^pro): 58%
- inhibition of the S/ACE2 interaction [1]: 91%
- inhibition of SARS-CoV PLpro (SARS‐CoV PL^pro): 80%
- cytotoxicity (in words) (CaLu‐3 cells): strongly toxic

Compound: Rb6Na6[{(p‐tolyl)Sb}4(GeW9 O34)2] ⋅ 40H2O [POM‐7]
- cytotoxicity (in words) (Caco‐2 cells): strongly toxic
- inhibition of SARS-CoV-2 PLpro (SARS‐CoV‐2 PL^pro): 67%
- inhibition of the S/ACE2 interaction [1]: 98%
- inhibition of SARS-CoV PLpro (SARS‐CoV PL^pro): 92%
- cytotoxicity (in words) (CaLu‐3 cells): strongly toxic

Compound: [Pd16Na2O26 (OH)3Cl3((CH3)2As)8] ⋅ 0.25Na(CH3)2AsO2 ⋅ 17H2O [POM‐11]
- concentration up to which no significant cytotoxic effects / tolerated well (Caco‐2 cells): ≥ 200 µM
- inhibition of SARS-CoV-2 PLpro (SARS‐CoV‐2 PL^pro): 85%
- inhibition of the S/ACE2 interaction [1]: 75%
- antiviral effect against SARS‐CoV‐2 replication (in words) (SARS‐CoV‐2): antiviral activity starting at low micromolar concentrations
- concentration at which antiviral effects were shown (SARS‐CoV‐2): 50 µM
- inhibition of SARS-CoV PLpro (SARS‐CoV PL^pro): 100%
- concentration up to which no significant cytotoxic effects / tolerated well (CaLu‐3 cells): ≥ 200 µM
